Paper PMC6100079, “Design, Synthesis, and Evaluation of Homochiral Peptides Containing Arginine and Histidine as Molecular Transporters” (Molecules : A Journal of Synthetic Chemistry and Natural …, 2018)
Ends that are not written are not given here. Peptide text beside a SMILES is read from it. * marks the point of attachment. Oleoyl = CCCCCCCC/C=C\CCCCCCCC(=O)*; HOOC(CH2)6CO = O=C(O)CCCCCCC(=O)*; Palmitoyl = CCCCCCCCCCCCCCCC(=O)*; Myristoyl = CCCCCCCCCCCCCC(=O)*; Lauroyl = CCCCCCCCCCCC(=O)*

How the values were obtained:
[1] = tested on: human leukemia cancer cell line (CCRF-CEM); experiment: Cytotoxicity (MTS proliferation assay) of peptides in CCRF-CEM cells; type: cell-based
Procedure: (§1) All bioassays were performed in triplicate.
(§2) The linear and cyclic peptides at concentrations (5, 10, 25, 50 and 100 µM) were added to the cells and incubated at 37 °C with 5% carbon dioxide for 72 h. After 72 h of incubation, the pH of media were tested. […] Then 20 µL of MTS reagent was added to each well. […] The […] of the formazan product was measured at 490 nm using a Spectra Max M2 microplate spectrophotometer. The percentage of cell survival was calculated as [(OD value of cells treated with the test mixture of compounds) − (OD value of culture medium)]/[(OD value of control cells) − (OD value of culture medium)] × 100%.

[2] = tested on: human ovarian adenocarcinoma (SK-OV-3) cells; experiment: Cytotoxicity (MTS proliferation assay) of peptides in SK-OV-3 cells; type: cell-based
Procedure: as §1, §2

CCRF-CEM cells = experiment: Antiproliferative assay of anticancer drugs using C20-(HR)4 in CCRF-CEM cells; settings: drug 5 µM + C20-(HR)4 50 µM, 72 h, vs drug alone
SK-OV-3 cells = experiment: Antiproliferative assay of anticancer drugs using C20-(HR)4 in SK-OV-3 cells; type: cell-based, human; settings: SK-OV-3 (for doxorubicin, epirubicin per b1 and b46; not restated for the 1.5 fold sentence); drug 5 µM + C20-(HR)4 50 µM; 72 h; vs drug alone
Procedure: as §1

[3] = SK-OV-3, up to / at 50 µM peptide

Compound	cytotoxicity (in words) ([1]; 100 µM peptide)	cytotoxicity (in words) ([1]; up to / at 50 µM peptide)	cytotoxicity (in words) ([2]; SK-OV-3, 100 µM peptide)	cytotoxicity (in words) [2, 3]	further results
N=C(N)NCCC[C@H](NC(=O)[C@H](Cc1c[nH]cn1)NC(=O)[C@H](CCCNC(=N)N)NC(=O)[C@H](Cc1c[nH]cn1)NC(=O)[C@H](CCCNC(=N)N)NC(=O)[C@H](Cc1c[nH]cn1)NC(=O)[C@H](CCCNC(=N)N)NC(=O)[C@H](Cc1c[nH]cn1)NC(=O)CCCCCCC(=O)O)C(=O)O [C8-(HR)4] ({HOOC(CH2)6CO}-HRHRHRHR-OH)	mild cytotoxicity	not toxic	mild cytotoxicity	not toxic	cytotoxicity (in words) ([1]; up to / at 50 µM peptide, listed as C8): did not show cytotoxicity; cytotoxicity (in words) ([2]; SK-OV-3, up to / at 50 µM peptide, listed as C8): did not show cytotoxicity
CCCCCCCCCCCC(=O)N[C@@H](Cc1c[nH]cn1)C(=O)N[C@@H](CCCNC(=N)N)C(=O)N[C@@H](Cc1c[nH]cn1)C(=O)N[C@@H](CCCNC(=N)N)C(=O)N[C@@H](Cc1c[nH]cn1)C(=O)N[C@@H](CCCNC(=N)N)C(=O)N[C@@H](Cc1c[nH]cn1)C(=O)N[C@@H](CCCNC(=N)N)C(=O)O [C12-(HR)4] (Lauroyl-HRHRHRHR-OH)	mild cytotoxicity	not toxic	mild cytotoxicity	not toxic	cytotoxicity (in words) ([1]; up to / at 50 µM peptide, listed as C12): did not show cytotoxicity; cytotoxicity (in words) ([2]; SK-OV-3, up to / at 50 µM peptide, listed as C12): did not show cytotoxicity
CCCCCCCCCCCCCC(=O)N[C@@H](Cc1c[nH]cn1)C(=O)N[C@@H](CCCNC(=N)N)C(=O)N[C@@H](Cc1c[nH]cn1)C(=O)N[C@@H](CCCNC(=N)N)C(=O)N[C@@H](Cc1c[nH]cn1)C(=O)N[C@@H](CCCNC(=N)N)C(=O)N[C@@H](Cc1c[nH]cn1)C(=O)N[C@@H](CCCNC(=N)N)C(=O)O [C14-(HR)4] (Myristoyl-HRHRHRHR-OH)	mild cytotoxicity	not toxic	mild cytotoxicity	not toxic	cytotoxicity (in words) ([1]; up to / at 50 µM peptide, listed as C14): did not show cytotoxicity; cytotoxicity (in words) ([2]; SK-OV-3, up to / at 50 µM peptide, listed as C14): did not show cytotoxicity
CCCCCCCCCCCCCCCC(=O)N[C@@H](Cc1c[nH]cn1)C(=O)N[C@@H](CCCNC(=N)N)C(=O)N[C@@H](Cc1c[nH]cn1)C(=O)N[C@@H](CCCNC(=N)N)C(=O)N[C@@H](Cc1c[nH]cn1)C(=O)N[C@@H](CCCNC(=N)N)C(=O)N[C@@H](Cc1c[nH]cn1)C(=O)N[C@@H](CCCNC(=N)N)C(=O)O [C16-(HR)4] (Palmitoyl-HRHRHRHR-OH)	–	significant reduction in the cell viability	–	significant reduction in the cell viability	cytotoxic effect ([1]; 10 µM peptide, 72 h, MTS): 0%; reduction in cell viability ([2]; SK-OV-3 (sentence speaks of both cell lines), 50 and 100 µM peptide, respectively, 72 h, MTS): 35–70%; cytotoxic effect / reduction of proliferation ([2]; SK-OV-3, 10 µM peptide, 72 h, MTS): 0%; reduction of proliferation ([2]; SK-OV-3, 50 µM peptide): 11%
CCCCCCCC/C=C\CCCCCCCC(=O)N[C@@H](Cc1c[nH]cn1)C(=O)N[C@@H](CCCNC(=N)N)C(=O)N[C@@H](Cc1c[nH]cn1)C(=O)N[C@@H](CCCNC(=N)N)C(=O)N[C@@H](Cc1c[nH]cn1)C(=O)N[C@@H](CCCNC(=N)N)C(=O)N[C@@H](Cc1c[nH]cn1)C(=O)N[C@@H](CCCNC(=N)N)C(=O)O [C18-(HR)4] (Oleoyl-HRHRHRHR-OH)	mild cytotoxicity	not toxic	mild cytotoxicity	not toxic	cytotoxicity (in words) ([1]; up to / at 50 µM peptide, listed as C18): did not show cytotoxicity; cytotoxicity (in words) ([2]; SK-OV-3, up to / at 50 µM peptide, listed as C18): did not show cytotoxicity
COc1cc([C@@H]2c3cc4c(cc3[C@@H](O[C@@H]3O[C@@H]5CO[C@@H](C)O[C@H]5[C@H](O)[C@H]3O)[C@H]3COC(=O)[C@H]23)OCO4)cc(OC)c1O [etoposide]	–	–	–	–	improvement of the drug's anti-proliferating potency by C20-(HR)4 (CCRF-CEM cells): did not improve; improvement of the drug's anti-proliferation potency / toxicity upon loading (physical mixture) with C20-(HR)4 (SK-OV-3 cells): one and half
CC(=O)O[C@H]1C(=O)[C@@]2(C)[C@H]([C@H](OC(=O)c3ccccc3)[C@]3(O)C[C@H](OC(=O)[C@H](O)[C@@H](NC(=O)c4ccccc4)c4ccccc4)C(C)=C1C3(C)C)[C@]1(OC(C)=O)CO[C@@H]1C[C@@H]2O [paclitaxel]	–	–	–	–	improvement of the drug's anti-proliferating potency by C20-(HR)4 (CCRF-CEM cells): did not improve
Ac-HRHRHRHR [C2-(HR)4]	–	not toxic	–	not toxic	–
